Two molecules from article PMC8998838, “Functional Characterization of the Solute Carrier LAT-1 (SLC7A5/SLC2A3) in Human Brain Capillary Endothelial Cells with Rapid UPLC-MS/MS Quantification of Intracellular Isotopically Labelled L-Leucine” (International Journal of Molecular Sciences, 2022) can be followed below.

This test deals with T1, L-type amino acid transporter 1 (LAT-1/SLC7A5) (Homo sapiens, UniProt Q01650).
T1 construct: with CD98 (4F2hc; SLC3A2, also printed as SLC2A3)
The test can be described thus: inhibition of [[…]6, […]]-L-leucine uptake in hCMEC/D3 cells, UPLC-MS/MS. Type of test: cell-based.

Each structure is given as a SMILES string.

T1 sequence (Q01650 whole entry): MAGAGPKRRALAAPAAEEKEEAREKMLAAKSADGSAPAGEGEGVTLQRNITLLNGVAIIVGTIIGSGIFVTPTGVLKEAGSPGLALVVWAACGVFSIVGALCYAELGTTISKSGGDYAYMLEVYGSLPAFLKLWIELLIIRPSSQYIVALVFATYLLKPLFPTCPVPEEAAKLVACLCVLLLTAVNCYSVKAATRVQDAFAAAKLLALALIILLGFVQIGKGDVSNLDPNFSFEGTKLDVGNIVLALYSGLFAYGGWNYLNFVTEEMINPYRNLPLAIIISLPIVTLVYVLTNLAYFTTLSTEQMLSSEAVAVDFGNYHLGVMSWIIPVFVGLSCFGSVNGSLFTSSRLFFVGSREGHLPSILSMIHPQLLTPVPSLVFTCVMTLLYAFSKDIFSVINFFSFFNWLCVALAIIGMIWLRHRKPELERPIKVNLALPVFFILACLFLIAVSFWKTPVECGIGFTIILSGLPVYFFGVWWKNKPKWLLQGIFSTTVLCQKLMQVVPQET
T1 sequence (P08195 103-630 partner): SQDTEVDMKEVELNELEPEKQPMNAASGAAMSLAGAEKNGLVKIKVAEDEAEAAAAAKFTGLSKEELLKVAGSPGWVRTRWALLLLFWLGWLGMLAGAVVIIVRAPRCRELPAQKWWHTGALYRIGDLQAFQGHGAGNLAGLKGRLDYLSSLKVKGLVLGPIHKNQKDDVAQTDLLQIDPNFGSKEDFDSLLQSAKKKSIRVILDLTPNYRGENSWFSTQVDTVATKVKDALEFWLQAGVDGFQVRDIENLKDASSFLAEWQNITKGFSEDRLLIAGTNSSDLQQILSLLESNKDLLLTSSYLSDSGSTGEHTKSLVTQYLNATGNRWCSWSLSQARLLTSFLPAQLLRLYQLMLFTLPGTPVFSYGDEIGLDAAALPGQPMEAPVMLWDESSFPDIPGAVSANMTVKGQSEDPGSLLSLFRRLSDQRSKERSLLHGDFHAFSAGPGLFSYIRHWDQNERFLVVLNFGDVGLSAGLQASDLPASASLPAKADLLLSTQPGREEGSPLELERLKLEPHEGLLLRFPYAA

For orientation: IC50 means the concentration that inhibits the measured activity by half. The molecule `NC1(C(=O)O)CC2CCC1C2` (centres unmarked) [BCH, 2-aminobicyclo-(2,2,1)-heptane-2-carboxylic acid] had an IC50 of 91 ± 39 µM.
As for `Nc1cc(COc2c(Cl)cc(C[C@H](N)C(=O)O)cc2Cl)c2oc(-c3ccccc3)nc2c1` [JPH203], the figure is 0.103 ± 0.015 µM.
